This is an account of results in patent US9301938B2, “Composition and method for treatment of diabetes” (BioKier, Inc., priority 2009, dated 2016).

Structures are written as SMILES.

For assay [1], the system named is obese diabetic patients. The assay is described as follows: Oral Glucose Tolerance Test (OGTT) or standardized meal after a single dose. The assay is classed as in vivo, human. The conditions noted are these: overnight fasted patients. How it is done: Drug is delivered as an enema or suppositories made as described in^1 (containing 1 g of glutamine). 10 overnight fasted obese diabetic patients with impaired gut hormone effect^3 and/or impaired gut hormone secretion^4,5 are dosed rectally with one suppository (or enema). 30 minutes after drug administration, patients are subjected to Oral Glucose Tolerance Test (OGTT) or standardized meal. Blood is collected at the following time points: −30, 0, 5; 10, 15, 30, 60, 90, and 120 minutes. Blood is analyzed for levels of: glucose, insulin, GLP-1, PYY, other hormones and lipids. […] Drug is delivered as an enema or suppositories made as described in^1 (containing 2 g of butyric acid). 10 overnight fasted obese diabetic patients with impaired incretin effect^3 and/or impaired gut hormone secretion^4,5 are dosed rectally with one suppository (or enema). 30 minutes after drug administration, patients are subjected to Oral Glucose Tolerance Test (OGTT) or standardized meal. Blood is collected at the following time points: −30, 0, 5; 10, 15, 30, 60, 90, and 120 minutes. Blood is analyzed for levels of: glucose, insulin, GLP-1, PYY, other hormones and lipids. […] Tablets formulated with MMX technology (containing 1 g of glutamine) are made as described in^2. 10 overnight fasted obese diabetic patients with impaired gut hormone effect^3 and/or impaired gut hormone secretion^4,5 are dosed with one MMX tablet at 8:00 AM. 4 hrs after drug administration, patients are subjected to Oral Glucose Tolerance Test (OGTT) or standardized meal. Blood is collected at the following time points: −30, 0, 5; 10, 15, 30, 60, 90, and 120 minutes. Blood is analyzed for levels of: glucose, insulin, GLP-1, PYY, other hormones and lipids. […] Tablets formulated with MMX technology (containing 2 g of butyric acid) are made as described in^2. 10 overnight fasted obese diabetic patients with impaired gut hormone effect^3 and/or impaired gut hormone secretion^4,5 are dosed with one MMX tablet at 8:00 AM. 4 hrs after drug administration, patients are subjected to Oral Glucose Tolerance Test (OGTT) or standardized meal. Blood is collected at the following time points: −30, 0, 5; 10, 15, 30, 60, 90, and 120 minutes. Blood is analyzed for levels of: glucose, insulin, GLP-1, PYY, other hormones and lipids.

Assay [2] deals with obese diabetic patients. Put plainly: Six-week once-daily MMX tablet treatment with OGTT or standardized meal. The assay is classed as in vivo, human. The conditions noted are these: one MMX tablet daily before first meal for six weeks. As for the experimental part: Tablets formulated with MMX technology (containing 1 g of glutamine) are made as described in^2. 10 obese diabetic patients with impaired incretin effect^3 and/or impaired incretin secretion^4,5 are dosed with one MMX tablet at 8:00 AM before first meal for six (6) weeks. HbA1c, fasting glucose and insulin are measured before treatment and at 1, 2, and 6 weeks after initiation of the treatment. Additionally, patients are subjected at these times to Oral Glucose Tolerance Test (OGTT) or standardized meal. Blood is collected at the following time points: −30, 0, 5; 10, 15, 30, 60, 90, and 120 minutes. Blood is analyzed for levels of: glucose, insulin, GLP-1, PYY, other hormones and lipids. […] Tablets formulated with MMX technology (containing 2 g of butyric acid) are made as described in^2. 10 obese diabetic patients with impaired gut hormone effect^3 and/or impaired gut hormone secretion^4,5 are dosed with one MMX tablet at 8:00 AM before first meal for six (6) weeks. HbA1c, fasting glucose and insulin are measured before the treatment and at 1, 2, and 6 weeks after initiation of the treatment. Additionally, patients are subjected at these times to Oral Glucose Tolerance Test (OGTT) or standardized meal. Blood is collected at the following time points: −30, 0, 5; 10, 15, 30, 60, 90, and 120 min. Blood is analyzed for levels of: glucose, insulin, GLP-1, PYY, other hormones and lipids.

[3] abbreviates: one MMX tablet orally, 4 hrs before OGTT or standardized meal.
Where [4] appears, read: one MMX tablet orally, 4 hrs before standardized meal.
Where [5] appears, read: one suppository or enema rectally, 30 minutes before OGTT or standardized meal.
Setting [6] is: one suppository or enema rectally, 30 minutes before standardized meal.

In the case of `CCCC(=O)O` [butyric acid], the Glucose levels result in assay [1] (setting [3]), in assay [1] (setting [5]) and in assay [2] was “decrease” each time. For the same compound, the “lipids levels (after standardized meal)” value in assay [1] (setting [4]) and in assay [1] (setting [6]) was “decrease” in each case. For the same compound, the “triglycerides levels versus pre-treatment” value in assay [2] was “lower than pre-treatment levels”.

Take `NC(=O)CC[C@H](N)C(=O)O` [glutamine]: the Glucose levels entry in assay [1] (setting [3]), in assay [1] (setting [5]) and in assay [2] was “decrease” each time. Besides, the “lipids levels (after standardized meal)” value in assay [1] (setting [4]) and in assay [1] (setting [6]) was “decrease” each time. Also, the “triglycerides levels versus pre-treatment” value in assay [2] was “lower than pre-treatment levels”.
